Experimental data: ChEMBL document CHEMBL4190285, “Borapetoside E, a Clerodane Diterpenoid Extracted from Tinospora crispa, Improves Hyperglycemia and Hyperlipidemia in High-Fat-Diet-Induced Type 2 Diabetes Mice” (J Nat Prod, 2017)
Activity calls are given as the source filed them. The calls are words filed in the database; no cut-off is given here.

Columns and labels:
Mus musculus [1] = experiment: Antihyperlipidemic activity in high fat diet-induced obese C57BL/6J mouse assessed as serum triglyceride levels at 40 mg/kg, ip administered twice daily for 2.5 days measured at 2 hrs post last dose (reference value: 1.31 +/- 0.48 mmol/L); format: functional
Mus musculus [2] = experiment: Antihyperlipidemic activity in high fat diet-induced obese C57BL/6J mouse assessed as reduction in free fatty acid level in epididymis adipose tissue at 20 to 40 mg/kg, ip administered twice daily for 2.5 days measured at 2 hrs post last dose; format: functional, organism-based
Mus musculus [3] = experiment: Down regulation of pre-SREBP1 expression in HFD-induced obese C57BL/6J mouse liver at 20 to 40 mg/kg, ip administered twice daily for 2.5 days measured at 2 hrs post last dose by Western blot analysis; format: functional, organism-based
Mus musculus [4] = experiment: Down regulation of FAS mRNA expression in HFD-induced obese C57BL/6J mouse liver at 20 to 40 mg/kg, ip administered twice daily for 2.5 days measured at 2 hrs post last dose by RT-PCR analysis; format: functional, organism-based
Mus musculus [5] = experiment: Down regulation of ACL1 mRNA expression in HFD-induced obese C57BL/6J mouse adipose tissue at 20 to 40 mg/kg, ip administered twice daily for 2.5 days measured at 2 hrs post last dose by RT-PCR analysis; format: functional, organism-based
Mus musculus [6] = experiment: Increase in oxygen consumption in HFFD-induced obese C57BL/6J mouse at 40 mg/kg, ip administered twice daily for 2.5 days measured up to 12.6 hrs under dark condition; format: functional, organism-based
Mus musculus [7] = experiment: Improvement in insulin resistance in high fat diet-induced obese C57BL/6J mouse assessed as reduction in blood glucose AUC at 40 mg/kg, ip administered as single dose pretreated for 2 hrs followed by insulin challenge measured up to 2 hrs by ITT; format: functional, organism-based
Mus musculus [8] = experiment: Down regulation of SREBP2 mRNA expression in HFD-induced obese C57BL/6J mouse adipose tissue at 20 to 40 mg/kg, ip administered twice daily for 2.5 days measured at 2 hrs post last dose by RT-PCR analysis; format: functional, organism-based
Mus musculus [9] = experiment: Antihyperglycemic activity in high fat diet-induced obese C57BL/6J mouse assessed as reduction in blood glucose level at 20 to 40 mg/kg, ip administered twice daily for 2.5 days measured at 3 days post last dose; format: functional, organism-based
Mus musculus [10] = experiment: Improvement in insulin resistance in high fat diet-induced obese C57BL/6J mouse assessed as increase in insulin sensitivity index at 40 mg/kg, ip pretreated twice daily for 2.5 days followed by insulin challenge at 2 hrs post last dose measured up to 2 hrs by ITT; format: functional, organism-based
Mus musculus [11] = experiment: Antihyperlipidemic activity in high fat diet-induced obese C57BL/6J mouse assessed as serum free fatty acid levels at 20 mg/kg, ip administered twice daily for 2.5 days measured at 2 hrs post last dose (reference value: 1.41 +/- 0.3 mmol/L); format: functional
Mus musculus [12] = experiment: Down regulation of n-SREBP1 expression in HFD-induced obese C57BL/6J mouse liver at 20 to 40 mg/kg, ip administered twice daily for 2.5 days measured at 2 hrs post last dose by Western blot analysis; format: functional, organism-based
Mus musculus [13] = experiment: Improvement in serum ALT level in HFFD-induced obese C57BL/6J mouse assessed as serum ALT level at 40 mg/kg, ip administered twice daily for 2.5 days followed by once daily dosing up to 16 days measured at 2 hrs post last dose (reference value: 20.49 +/- 4.5 IU/L); format: functional
Mus musculus [14] = experiment: Improvement in insulin resistance in high fat diet-induced obese C57BL/6J mouse assessed as increase in phosphorylated GSK3beta expression in skeletal muscle at 40 mg/kg, ip administered twice daily for 2.5 days measured at 2 hrs post last dose by Western blot analysis; format: functional, organism-based
Mus musculus [15] = experiment: Antiobesity activity in HFFD-induced obese C57BL/6J mouse assessed as reduction in size of adipocytes at 40 mg/kg, ip administered twice daily for 2.5 days followed by once daily dosing up to 16 days measured at 2 hrs post last dose by hematoxylin-eosin staining based histological analysis; format: functional, organism-based
Mus musculus [16] = experiment: Improvement in insulin resistance in high fat diet-induced obese C57BL/6J mouse assessed as reduction in fasting serum insulin level at 40 mg/kg, ip pretreated twice daily for 2.5 days followed by insulin challenge at 2 hrs post last dose measured up to 2 hrs by ELISA based ITT; format: functional, organism-based
Mus musculus [17] = experiment: Antihyperlipidemic activity in high fat diet-induced obese C57BL/6J mouse assessed as reduction in liver free fatty acid level at 20 to 40 mg/kg, ip administered twice daily for 2.5 days measured at 2 hrs post last dose; format: functional, organism-based
Mus musculus [18] = experiment: Down regulation of HMGCS mRNA expression in HFD-induced obese C57BL/6J mouse adipose tissue at 20 to 40 mg/kg, ip administered twice daily for 2.5 days measured at 2 hrs post last dose by RT-PCR analysis; format: functional, organism-based
Mus musculus [19] = experiment: Antiobesity activity in HFFD-induced obese C57BL/6J mouse assessed as reduction in hepatic steatosis at 40 mg/kg, ip administered twice daily for 2.5 days followed by once daily dosing up to 16 days measured at 2 hrs post last dose by Oil red O staining based histological analysis; format: functional, organism-based
Mus musculus [20] = experiment: Antihyperglycemic activity in high fat diet-induced obese C57BL/6J mouse assessed as reduction in blood glucose level at 40 mg/kg, ip administered as single dose measured after 36 hrs; format: functional, organism-based
Mus musculus [21] = experiment: Antihyperglycemic activity in high fat diet-induced obese C57BL/6J mouse assessed as reduction in blood glucose AUC at 40 mg/kg, ip pretreated twice daily for 2.5 days followed by glucose challenge at 2 hrs post last dose by OGTT; format: functional, organism-based
Mus musculus [22] = experiment: Improvement in insulin resistance in high fat diet-induced obese C57BL/6J mouse assessed as increase in phosphorylated AKT ser473 level in liver at 40 mg/kg, ip administered twice daily for 2.5 days measured at 2 hrs post last dose by Western blot analysis; format: functional, organism-based
Mus musculus [23] = experiment: Increase in phosphorylated AMPKalpha level in HFFD-induced obese C57BL/6J mouse liver at 20 to 40 mg/kg, ip administered twice daily for 2.5 days measured at 2 hrs post last dose by Western blot analysis; format: functional, organism-based
Mus musculus [24] = experiment: Improvement in serum AST level in HFFD-induced obese C57BL/6J mouse assessed as serum AST level at 40 mg/kg, ip administered twice daily for 2.5 days followed by once daily dosing up to 16 days measured at 2 hrs post last dose (reference value: 15.14 +/- 3.84 IU/L); format: functional
Mus musculus [25] = experiment: Antihyperlipidemic activity in high fat diet-induced obese C57BL/6J mouse assessed as serum total cholesterol levels at 20 mg/kg, ip administered twice daily for 2.5 days measured at 2 hrs post last dose (reference value: 4.56 +/- 1.01 mmol/L); format: functional
Mus musculus [26] = experiment: Toxicity in HFFD-induced obese C57BL/6J mouse assessed as effect on food intake at 40 mg/kg, ip administered twice daily for 2.5 days followed by once daily dosing up to 16 days measured daily during compound dosing; format: organism-based; conditions: in vivo
Mus musculus [27] = experiment: Down regulation of HMGCR mRNA expression in HFD-induced obese C57BL/6J mouse liver at 20 to 40 mg/kg, ip administered twice daily for 2.5 days measured at 2 hrs post last dose by RT-PCR analysis; format: functional, organism-based

**Q.** `COC(=O)C1=CCC[C@H]2[C@](C)(C[C@@H](O[C@@H]3O[C@H](CO)[C@@H](O)[C@H](O)[C@H]3O)c3ccoc3)[C@H]3C[C@H](OC3=O)[C@@]12C` was tested. Which Activity (Mus musculus [1]) did it give?
**A.** 0.5 mmol/L

**Q.** And the Activity (Mus musculus [2])?
**A.** Active

**Q.** What about the Activity (Mus musculus [3]) of the same molecule?
**A.** Active

**Q.** And the Activity (Mus musculus [4])?
**A.** Active

**Q.** And the Activity (Mus musculus [5])?
**A.** Active

**Q.** And the Activity (Mus musculus [6])?
**A.** Active

**Q.** And the Activity (Mus musculus [7])?
**A.** Active

**Q.** What about the Activity (Mus musculus [8]) of the same molecule?
**A.** Active

**Q.** And the Activity (Mus musculus [9])?
**A.** Active

**Q.** And the Activity (Mus musculus [10])?
**A.** Active

**Q.** What about the Activity (Mus musculus [11]) of the same molecule?
**A.** 1.39 mmol/L

**Q.** And the Activity (Mus musculus [12])?
**A.** Active

**Q.** What about the Activity (Mus musculus [13]) of the same molecule?
**A.** 15.75 IU/L

**Q.** What about the Activity (Mus musculus [14]) of the same molecule?
**A.** Active

**Q.** And the Activity (Mus musculus [15])?
**A.** Active

**Q.** And the Activity (Mus musculus [16])?
**A.** Active

**Q.** What about the Activity (Mus musculus [17]) of the same molecule?
**A.** Active

**Q.** And the Activity (Mus musculus [18])?
**A.** Active

**Q.** What about the Activity (Mus musculus [19]) of the same molecule?
**A.** Active

**Q.** What about the Activity (Mus musculus [20]) of the same molecule?
**A.** Active

**Q.** And the Activity (Mus musculus [21])?
**A.** Active

**Q.** And the Activity (Mus musculus [22])?
**A.** Active

**Q.** And the Activity (Mus musculus [23])?
**A.** inactive

**Q.** What about the Activity (Mus musculus [24]) of the same molecule?
**A.** 8.61 IU/L

**Q.** What about the Activity (Mus musculus [25]) of the same molecule?
**A.** 3.8 mmol/L

**Q.** And the Activity (Mus musculus [26])?
**A.** Non-Toxic

**Q.** And the Activity (Mus musculus [27])?
**A.** Active
